Columns and labels:
[1] = Andersen Cascade Impactor (ACI) evaluation of pMDI spray drug delivery characteristics; format: physicochemical
Procedure: Spray characteristics of the system were evaluated by an Andersen cascade impactor fitted with a USP throat (App. 1, USP 33). […] This was repeated twice. Pre- and post-shot weights were recorded. […] The solutions were analysed by using a UPLC/MS (Ultra Performance Liquid Chromatography/Mass Spectrometry) system for the determination of the drug deposition.

[2] = Plume duration measured with in-line PC microphone, dual orifice actuator; format: physicochemical; settings: Ex 8, individual can
Procedure: For Example 8, plume duration was measured using an in-line PC microphone in conjunction with Audacity 1.2.6 software.
Formulation combinations 17a-18a and 17b-18b are fired through the dual orifice actuator, as shown at 121 in FIG. 17B. Plume duration was measured for the simultaneous actuation of two 25 μL valves and two 63 μL valves and compared with plume duration for the individual cans. […] The two formulation combinations were: […]

[3] = Ex 1, Dual MDI, Formulations 1+2, single 0.22 mm actuator orifice, mean, n=3
[4] = Ex 1, Dual MDI, Formulations 1+2, single 0.30 mm actuator orifice, mean, n=3
[5] = Ex 1, Standard MDI, single can, 0.22 mm actuator orifice, mean, n=3
[6] = Ex 1, Standard MDI, single can, 0.30 mm actuator orifice, mean, n=3
[7] = Ex 2/3, Standard MDI, single can, 0.22 mm orifice, mean, n=3
[8] = Ex 2, Dual MDI, Formulations 3+4, single 0.22 mm orifice, mean, n=2
[9] = Ex 4, Dual-MDI, Formulation 6 + Formulation 7 (HFA 134a), single 0.22 mm orifice, mean, n=2
[10] = Ex 4, Standard MDI, high ethanol (26% w/w) BDP 100 μg, 0.22 mm orifice, mean, n=2
[11] = Ex 6, dual can, BDP 25 μL + BUD 100 μL, single 0.22 mm orifice, mean, n=2
[12] = Ex 6, dual can, BDP 50 μL + BUD 50 μL, single 0.22 mm orifice, mean, n=2
[13] = Ex 6, dual can, BDP 100 μL + BUD 25 μL, single 0.22 mm orifice, mean, n=2
[14] = Ex 6, single can, 50 μg dose, metered volume 25 μL, 0.22 mm actuator, mean, n=2
[15] = Ex 6, single can, 50 μg dose, metered volume 50 μL, 0.22 mm actuator, mean, n=2
[16] = Ex 6, single can, 50 μg dose, metered volume 100 μL, 0.22 mm actuator, mean, n=2
[17] = Ex 7, Dual can, Formulations 15+16 simultaneously, dual orifice actuator, mean, n=2
[18] = Ex 7, Single can through dual orifice actuator, mean, n=2
[19] = Ex 9, Dual can, Formulations 17a+18a simultaneously, dual orifice actuator, mean, n=2
[20] = Ex 9, Single can through dual orifice actuator, mean, n=2
[21] = Ex 11, Dual can single orifice, Formulations 9+12, 0.30 mm orifice, mean, n=2
[22] = Ex 11, Single reservoir conventional MDI, 50/50, 0.30 mm orifice, mean, n=2
[23] = Ex 19, dual reservoir-single orifice prototype (FIG. 14B)
[24] = Ex 20, triple reservoir-single orifice prototype (FIG. 16B)

## CCC(=O)OCC(=O)[C@@]1(OC(=O)CC)[C@@H](C)C[C@H]2[C@@H]3CCC4=CC(=O)C=C[C@]4(C)[C@@]3(Cl)[C@@H](O)C[C@@]21C [BDP, Beclometasone dipropionate]
[1]; Ex 1, Dual MDI, Formulations 1+2 (each BDP 50 μg/25 μl, 13% ethanol, 1.3% glycerol) mixed, single 0.22 mm actuator orifice, mean, n=3
  Delivered Dose: 99.3 µg
[1]; [3]
  FPD ≦ 5 μm: 44.6 µg
  FPF: 45.0%
  MMAD: 2.9 μm
[1]; [4]
  Delivered Dose: 95.6 µg
  FPD ≦ 5 μm: 27.1 µg
  FPF: 28.3%
  MMAD: 3.0 μm
[1]; Ex 1, Standard MDI, single can BDP 100 μg/50 ul, 13% ethanol, 1.3% glycerol, 0.22 mm actuator orifice, mean, n=3
  Delivered Dose: 89.8 µg
[1]; [5]
  FPD ≦ 5 μm: 41.9 µg
  FPF: 46.6%
  MMAD: 3.0 μm
[1]; [6]
  Delivered Dose: 89.1 µg
  FPD ≦ 5 μm: 26.2 µg
  FPF: 29.4%
  MMAD: 3.3 μm
[1]; Ex 2/3, Standard MDI, single can (BDP 100 μg/50 μl or formoterol fumarate 6 μg/50 μl), 0.22 mm orifice, mean, n=3
  Delivered Dose: 99.3 µg
[1]; [7]
  FPD ≦ 5 μm: 44.6 µg
  FPF: 45.0%
  MMAD: 2.9 μm
[1]; Ex 2, Dual MDI, Formulation 3 (formoterol fumarate 6 μg/25 μl) + Formulation 4 (BDP 100 μg/25 μl, glycerol) mixed, single 0.22 mm orifice, mean, n=2
  Delivered Dose: 97.9 µg
[1]; [8]
  FPD ≦ 5 μm: 52.5 µg
  FPF: 53.6%
  MMAD: 2.5 μm
[1]; Ex 4, Dual-MDI, Formulation 6 (BDP 100 μg/25 μl, 26% ethanol) + Formulation 7 (100% HFA 134a, 25 μl), single 0.22 mm orifice, mean, n=2
  Delivered Dose: 86.4 µg
[1]; [9]
  FPD ≦ 5 μm: 41.1 µg
  FPF: 47.5%
  MMAD: 2.7 μm
[1]; [10]
  FPD ≦ 5 μm: 26.7 µg
  FPF: 26.5%
  MMAD: 3.5 μm
[1]; Ex 4, Standard MDI, single can BDP 100 μg/25 μl, 26% w/w ethanol, 1.3% glycerol, 0.22 mm orifice, mean, n=2
  Delivered Dose: 100.6 µg
[1]; [11]
  Delivered Dose: 49.4 µg
  FPD ≦ 5 μm: 18.5 µg
  FPF: 37.3%
  MMAD: 2.6 μm
[1]; [12]
  Delivered Dose: 38.2 µg
  FPD ≦ 5 μm: 16.8 µg
  FPF: 44.1%
  MMAD: 1.9 μm
[1]; [13]
  Delivered Dose: 45.5 µg
  FPD ≦ 5 μm: 18.6 µg
  FPF: 40.8%
  MMAD: 1.8 μm
[1]; Ex 6, single can configuration, 0.22 mm actuator, across metered volumes 25-100 μL
  MMAD: 1.1-1.2 μm
[1]; Ex 6, single can, 50 μg dose, metered volume 25 μL (Formulation 9 / 12), 0.22 mm actuator, mean, n=2
  Delivered Dose: 52.0 µg
[1]; [14]
  FPD ≦ 5 μm: 31.1 µg
  FPF: 59.8%
  MMAD: 1.2 μm
[1]; Ex 6, single can, 50 μg dose, metered volume 50 μL (Formulation 10 / 13), 0.22 mm actuator, mean, n=2
  Delivered Dose: 45.6 µg
[1]; [15]
  FPD ≦ 5 μm: 24.7 µg
  FPF: 54.0%
  MMAD: 1.2 μm
[1]; Ex 6, single can, 50 μg dose, metered volume 100 μL (Formulation 11 / 14), 0.22 mm actuator, mean, n=2
  Delivered Dose: 48.8 µg
[1]; [16]
  FPD ≦ 5 μm: 19.2 µg
  FPF: 39.4%
  MMAD: 1.1 μm
[1]; Ex 7, Dual can, Formulations 15+16 (both with glycerol, 50 μg/25 μl) fired simultaneously through dual orifice actuator (0.22 mm), mean, n=2
  Delivered Dose: 41.5 µg
[1]; [17]
  FPD ≦ 5 μm: 12.7 µg
  FPF: 30.6%
  MMAD: 2.5 μm
[1]; [18]
  FPD ≦ 5 μm: 17.0 µg
  FPF: 47.2%
  MMAD: 2.3 μm
[1]; Ex 7, Single can, fired individually through dual orifice actuator (0.22 mm), Formulation 15 inverted, Formulation 16 upright, mean, n=2
  Delivered Dose: 36.0 µg
[1]; Ex 9, Dual can, Formulation 17a (budesonide, glycerol) + 18a (BDP, no glycerol) simultaneously through dual orifice actuator, mean, n=2
  Delivered Dose: 40.8 µg
[1]; [19]
  FPD ≦ 5 μm: 12.7 µg
  FPF: 31.1%
  MMAD: 1.5 μm
[1]; [20]
  FPD ≦ 5 μm: 16.2 µg
  FPF: 55.8%
  MMAD: 0.9 μm
[1]; Ex 9, Single can, fired individually through dual orifice actuator, Formulation 17a inverted, 18a upright (50 μg/25 μL), mean, n=2
  Delivered Dose: 29.1 µg
[1]; Ex 11, Dual can single orifice, Formulation 9 (BDP 50/25) + Formulation 12 (budesonide 50/25, glycerol), 0.30 mm orifice, mean, n=2
  Metered Dose: 59.5 µg
[1]; [21]
  Delivered Dose: 55.2 µg
  FPD: 16.3 µg
  FPF: 29.5%
  MMAD: 2.8 μm
[1]; Ex 11, Single reservoir conventional MDI, 50 μg/50 μl (Formulation 10 / 13), 0.30 mm orifice, mean, n=2
  Metered Dose: 52.7 µg
[1]; [22]
  Delivered Dose: 47.1 µg
  FPD: 16.6 µg
  FPF: 35.2%
  MMAD: 1.3 μm
[1]; Ex 13, BDP formulation 25 μl delivered simultaneously with 100 μl budesonide formulation (glycerol), single 0.30 mm orifice
  MMAD: 3.1 μm
[1]; Ex 13, conventional single reservoir MDI, 0.30 mm orifice
  MMAD: 1.2 μm
[1]; Ex 14a/15, comparative, conventional single reservoir MDI, 0.22 mm orifice, 50 μl valves
  MMAD: 1.3 μm
[1]; Ex 14a/15, dual reservoir-dual orifice, impingement angle 60°, orifice diameter 0.25 mm, separation distance 6.0 mm
  MMAD: 2.3 μm
[1]; Ex 14a, 15° impingement, 6.0 mm separation, stated comparable to the standard actuator
  actuator deposition: 6.1 µg
[1]; Ex 14a, dual reservoir-dual orifice, Formulations 9+12, impingement angle 60°, orifice diameter 0.25 mm, separation distance 17.5 mm
  MMAD: 2.0 μm
[1]; Ex 14a, dual reservoir-dual orifice, impingement angle 15°, orifice diameter 0.25 mm, separation distance 6.0 mm
  MMAD: 1.8 μm
[1]; Ex 14a, dual reservoir-dual orifice, impingement angle 60°, orifice diameter 0.25 mm, separation distance 9.0 mm
  MMAD: 2.1 μm
[1]; Ex 14a, dual reservoir-dual orifice, impingement angle 60°, orifice diameter 0.30 mm, separation distance 2.0 mm
  MMAD: 1.9 μm
[1]; Ex 15, dual reservoir, Formulations 9+12 through a single 0.30 mm diameter orifice
  MMAD: 2.8 μm
[1]; [23]
  Delivered Dose: 67.6 µg
  FPD: 30.2 µg
  FPF: 44.7%
  MMAD: 1.3 μm
[1]; Ex 19, dual reservoir-single orifice prototype (FIG. 14B), BDP/Formoterol 100/6 μg/25 μl + glycopyrronium bromide 12.5 μg/25 μl
  Metered Dose: 92.8 µg
[1]; [24]
  Delivered Dose: 60.8 µg
  FPD: 21.2 µg
  FPF: 34.9%
  MMAD: 1.4 μm
[1]; Ex 20, triple reservoir-single orifice prototype (FIG. 16B), BDP/Formoterol + glycopyrronium bromide + budesonide 50 μg/25 μl
  Metered Dose: 85.9 µg
[2]; valve size 25 μL (Formulation 18a BDP upright, 17a budesonide inverted)
  Plume duration: 0.317 s
[2]; valve size 63 μL (Formulation 18b BDP upright, 17b budesonide inverted)
  Plume duration: 0.545 s

Source: patent US20120055467A1, “METERED-DOSE INHALER AND METHOD OF USING THE SAME” (CHIESI FARMACEUTICI S.P.A., priority 2010, published 2012)
